Laboratory results from paper PMC11879040, “Advancing systemic toxicity risk assessment: Evaluation of a NAM-based toolbox approach” (Toxicological Sciences, 2024).
Like-named read-outs stand apart in the source and are kept apart here.

How the values were obtained:
[1] = biological target: Dopamine receptor D1, DRD1 (h) (Homo sapiens, UniProt P21728); conditions: control SCH 23390
[2] = biological target: Histamine H2 receptor, HRH2 (h) (Homo sapiens, UniProt P25021); test: IPP HRH2 binding (antagonist radioligand); conditions: control cimetidine
Histamine H2 receptor, HRH2 (h), sequence (P25021 whole entry): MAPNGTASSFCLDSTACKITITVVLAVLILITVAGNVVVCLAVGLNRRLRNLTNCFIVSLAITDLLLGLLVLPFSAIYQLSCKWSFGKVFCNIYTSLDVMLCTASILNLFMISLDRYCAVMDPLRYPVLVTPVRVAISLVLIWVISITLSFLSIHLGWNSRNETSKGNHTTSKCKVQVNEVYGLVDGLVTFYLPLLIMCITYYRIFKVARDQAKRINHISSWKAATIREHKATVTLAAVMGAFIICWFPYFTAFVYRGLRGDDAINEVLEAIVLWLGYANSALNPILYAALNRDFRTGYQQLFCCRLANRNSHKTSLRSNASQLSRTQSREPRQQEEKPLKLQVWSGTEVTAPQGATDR

[3] = system: Sodium channel protein type 5 subunit alpha (site 2), SCN5A (r); type: binding, rat
MCF7 cells = test: High-throughput transcriptomics (HTTr, TempO-Seq), MCF7, 24 h; type: cell-based, human; conditions: MCF-7; for pod_httr_bifrost PoD: HTTr BIFROST PoD; for podl_path_minbmd PoD: HTTr minimum pathway BMD(L)
Experimental: (§1) HepG2, HepaRG, and MCF7 cells were treated with each compound for 24 h across a dose range of 7 concentrations and lysed using TempO-Seq lysis buffer (BioSpyder Technologies, proprietary kit, see [Middleton et al. 2022] for method details). Sequencing was performed using TempO-Seq (BioClavis) version 2 of the human whole transcriptome panel and analyzed as described previously in Middleton et al.

[4] = biological target: T1, Muscarinic acetylcholine receptor M1, CHRM1 (h) (Homo sapiens, UniProt P11229); type: binding; conditions: control pirenzepine
T1 construct: purchased Eurofins Cerep (SafetyScreen44-based IPP panel)
T1 sequence (P11229 1-460): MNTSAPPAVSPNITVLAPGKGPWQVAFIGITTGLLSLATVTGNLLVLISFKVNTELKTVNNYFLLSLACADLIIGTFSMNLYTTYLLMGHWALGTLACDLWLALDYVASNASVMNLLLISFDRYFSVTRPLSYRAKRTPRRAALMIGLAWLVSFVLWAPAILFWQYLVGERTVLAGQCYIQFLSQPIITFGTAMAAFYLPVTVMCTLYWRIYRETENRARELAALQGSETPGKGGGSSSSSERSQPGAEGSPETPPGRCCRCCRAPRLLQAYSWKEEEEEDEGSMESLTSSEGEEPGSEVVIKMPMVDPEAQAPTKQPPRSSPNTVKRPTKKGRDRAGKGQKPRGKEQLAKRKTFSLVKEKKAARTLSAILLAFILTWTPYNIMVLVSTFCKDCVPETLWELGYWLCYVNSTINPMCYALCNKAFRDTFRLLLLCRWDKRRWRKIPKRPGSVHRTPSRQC

[5] = biological target: Angiotensin-converting enzyme 2, ACE2 (h) (Homo sapiens, UniProt Q9BYF1); test: IPP ACE2 enzymatic activity; type: biochemical; conditions: 10 uM; control captopril
Angiotensin-converting enzyme 2, ACE2 (h), sequence (Q9BYF1 18-805): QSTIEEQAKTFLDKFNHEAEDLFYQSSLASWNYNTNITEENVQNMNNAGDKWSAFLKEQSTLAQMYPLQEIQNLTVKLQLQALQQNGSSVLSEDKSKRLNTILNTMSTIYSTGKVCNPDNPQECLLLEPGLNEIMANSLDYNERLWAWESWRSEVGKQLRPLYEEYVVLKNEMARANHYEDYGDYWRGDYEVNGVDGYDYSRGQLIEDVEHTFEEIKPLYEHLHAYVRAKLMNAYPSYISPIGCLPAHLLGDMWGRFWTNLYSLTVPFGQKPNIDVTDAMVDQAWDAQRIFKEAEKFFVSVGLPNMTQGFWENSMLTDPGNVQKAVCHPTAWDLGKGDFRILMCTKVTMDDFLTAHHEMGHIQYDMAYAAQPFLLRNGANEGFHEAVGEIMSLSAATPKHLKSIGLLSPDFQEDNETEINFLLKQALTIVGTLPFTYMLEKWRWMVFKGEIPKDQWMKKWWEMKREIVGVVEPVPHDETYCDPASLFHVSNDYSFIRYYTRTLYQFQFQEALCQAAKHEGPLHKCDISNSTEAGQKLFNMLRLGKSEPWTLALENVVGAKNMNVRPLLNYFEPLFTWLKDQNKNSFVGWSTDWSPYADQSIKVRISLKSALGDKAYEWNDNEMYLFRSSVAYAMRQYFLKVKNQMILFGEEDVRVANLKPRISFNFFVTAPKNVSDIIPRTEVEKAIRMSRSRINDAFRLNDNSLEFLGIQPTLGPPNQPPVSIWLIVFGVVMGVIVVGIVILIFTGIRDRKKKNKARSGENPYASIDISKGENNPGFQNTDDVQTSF

[6] = Assignment of risk classifications to benchmark chemical-exposure scenarios; conditions: for risk: from table S1
HepG2 cells = test: High-throughput transcriptomics (HTTr, TempO-Seq), HepG2, 24 h; type: cell-based, human; conditions: HepG2; for pod_httr_bifrost PoD: HTTr BIFROST PoD; for podl_path_minbmd PoD: HTTr minimum pathway BMD(L)
Experimental: as §1

[7] = biological target: Cannabinoid receptor 2, CNR2 (h) (Homo sapiens, UniProt P34972); type: binding; conditions: IPP screening at 10 uM; control WIN 55212-2
Cannabinoid receptor 2, CNR2 (h), sequence (P34972 whole entry): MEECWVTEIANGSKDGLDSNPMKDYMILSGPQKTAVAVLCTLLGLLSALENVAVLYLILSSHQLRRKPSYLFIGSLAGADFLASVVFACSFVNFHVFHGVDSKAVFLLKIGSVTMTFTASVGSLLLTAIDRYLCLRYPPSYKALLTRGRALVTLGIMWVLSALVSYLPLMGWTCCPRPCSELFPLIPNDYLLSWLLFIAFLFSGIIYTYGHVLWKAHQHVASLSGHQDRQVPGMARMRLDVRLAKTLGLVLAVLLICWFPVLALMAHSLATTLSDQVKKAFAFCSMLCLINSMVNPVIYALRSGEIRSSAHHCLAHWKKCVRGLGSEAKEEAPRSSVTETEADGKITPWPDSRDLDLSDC

[8] = system: Gamma-aminobutyric acid receptor subunit alpha-1 BZD site, GABRA1A (r); type: binding, rat
[9] = biological target: T2, Muscarinic acetylcholine receptor M2, CHRM2 (h) (Homo sapiens, UniProt P08172); conditions: control methoctramine
T2 sequence (P08172 1-466): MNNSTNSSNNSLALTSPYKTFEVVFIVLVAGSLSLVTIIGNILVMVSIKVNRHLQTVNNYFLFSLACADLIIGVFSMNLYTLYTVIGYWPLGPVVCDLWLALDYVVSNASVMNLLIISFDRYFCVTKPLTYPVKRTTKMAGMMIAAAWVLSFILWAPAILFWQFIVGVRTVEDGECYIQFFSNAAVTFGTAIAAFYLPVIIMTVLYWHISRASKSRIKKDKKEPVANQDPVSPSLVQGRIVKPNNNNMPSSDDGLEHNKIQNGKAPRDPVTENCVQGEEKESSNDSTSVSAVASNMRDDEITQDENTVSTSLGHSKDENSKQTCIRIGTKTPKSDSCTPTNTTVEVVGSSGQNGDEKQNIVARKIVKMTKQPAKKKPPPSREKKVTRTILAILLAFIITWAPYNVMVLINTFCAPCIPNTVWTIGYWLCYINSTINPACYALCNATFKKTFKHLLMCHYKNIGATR

[10] = biological target: Sodium-dependent serotonin transporter, SLC6A4 (h) (Homo sapiens, UniProt P31645); type: binding; conditions: control imipramine
Sodium-dependent serotonin transporter, SLC6A4 (h), sequence (P31645 whole entry): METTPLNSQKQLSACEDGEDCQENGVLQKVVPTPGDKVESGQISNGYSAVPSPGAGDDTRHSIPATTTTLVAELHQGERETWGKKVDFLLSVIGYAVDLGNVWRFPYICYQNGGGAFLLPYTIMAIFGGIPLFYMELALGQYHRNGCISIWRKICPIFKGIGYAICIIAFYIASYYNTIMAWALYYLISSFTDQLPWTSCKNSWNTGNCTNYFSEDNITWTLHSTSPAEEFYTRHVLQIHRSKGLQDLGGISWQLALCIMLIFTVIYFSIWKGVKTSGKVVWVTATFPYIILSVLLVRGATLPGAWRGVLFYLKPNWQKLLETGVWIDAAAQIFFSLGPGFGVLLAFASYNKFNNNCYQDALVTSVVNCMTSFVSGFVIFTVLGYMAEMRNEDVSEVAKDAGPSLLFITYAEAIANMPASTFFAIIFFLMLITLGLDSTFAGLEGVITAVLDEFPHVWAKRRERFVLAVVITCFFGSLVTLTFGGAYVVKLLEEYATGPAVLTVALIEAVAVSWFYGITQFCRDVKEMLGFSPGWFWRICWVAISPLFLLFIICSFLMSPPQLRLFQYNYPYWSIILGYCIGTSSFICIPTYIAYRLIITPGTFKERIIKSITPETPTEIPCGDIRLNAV

[11] = biological target: 5-hydroxytryptamine receptor 2A, HTR2A (h) (Homo sapiens, UniProt P28223); type: binding
5-hydroxytryptamine receptor 2A, HTR2A (h), sequence (P28223 whole entry): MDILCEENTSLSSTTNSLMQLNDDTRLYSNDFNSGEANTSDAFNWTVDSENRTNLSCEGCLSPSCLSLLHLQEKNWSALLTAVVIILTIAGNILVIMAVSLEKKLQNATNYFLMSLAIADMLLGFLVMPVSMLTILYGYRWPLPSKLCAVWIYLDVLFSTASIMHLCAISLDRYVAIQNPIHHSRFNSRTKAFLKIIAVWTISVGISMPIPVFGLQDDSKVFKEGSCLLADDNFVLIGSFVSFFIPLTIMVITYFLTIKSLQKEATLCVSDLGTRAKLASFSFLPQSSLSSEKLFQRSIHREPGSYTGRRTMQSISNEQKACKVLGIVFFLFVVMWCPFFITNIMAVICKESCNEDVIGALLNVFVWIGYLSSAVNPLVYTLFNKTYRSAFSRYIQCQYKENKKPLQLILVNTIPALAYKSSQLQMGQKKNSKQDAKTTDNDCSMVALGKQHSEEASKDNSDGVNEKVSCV

[12] = biological target: T3, Cholecystokinin receptor type A, CCKAR (h) (Homo sapiens, UniProt P32238); test: IPP CCKAR binding (agonist radioligand); conditions: control CCK-8s
T3 sequence (P32238 1-428): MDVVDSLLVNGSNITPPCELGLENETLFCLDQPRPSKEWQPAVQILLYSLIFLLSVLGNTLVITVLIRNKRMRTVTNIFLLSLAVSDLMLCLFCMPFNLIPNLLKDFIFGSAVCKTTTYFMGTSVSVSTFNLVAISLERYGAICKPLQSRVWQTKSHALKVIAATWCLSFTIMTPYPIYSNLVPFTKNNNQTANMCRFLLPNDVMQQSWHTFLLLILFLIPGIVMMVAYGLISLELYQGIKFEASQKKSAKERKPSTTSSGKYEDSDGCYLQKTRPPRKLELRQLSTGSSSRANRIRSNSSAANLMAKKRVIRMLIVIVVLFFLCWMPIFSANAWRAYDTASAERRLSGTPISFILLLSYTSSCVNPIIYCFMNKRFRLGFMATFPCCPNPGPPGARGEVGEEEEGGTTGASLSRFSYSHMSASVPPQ

[13] = biological target: Mu-type opioid receptor, OPRM1 (h) (Homo sapiens, UniProt P35372); conditions: control DAMGO
Mu-type opioid receptor, OPRM1 (h), sequence (P35372 whole entry): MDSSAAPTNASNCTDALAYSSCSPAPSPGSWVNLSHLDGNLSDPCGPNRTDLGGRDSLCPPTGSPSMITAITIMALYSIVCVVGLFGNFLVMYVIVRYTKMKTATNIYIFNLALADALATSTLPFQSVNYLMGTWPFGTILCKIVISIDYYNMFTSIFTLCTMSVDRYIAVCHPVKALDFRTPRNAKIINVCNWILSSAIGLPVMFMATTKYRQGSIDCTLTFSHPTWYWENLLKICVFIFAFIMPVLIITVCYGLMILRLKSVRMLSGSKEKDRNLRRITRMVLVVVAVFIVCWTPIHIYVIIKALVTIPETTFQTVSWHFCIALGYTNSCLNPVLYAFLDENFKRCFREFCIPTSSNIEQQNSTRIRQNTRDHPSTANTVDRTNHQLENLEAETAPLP

[14] = IPP screening at 10 uM, control diazepam
[15] = IPP screening at 10 uM, control (±)DOI

Dopamine receptor D1, DRD1 (h), sequence (P21728 whole entry): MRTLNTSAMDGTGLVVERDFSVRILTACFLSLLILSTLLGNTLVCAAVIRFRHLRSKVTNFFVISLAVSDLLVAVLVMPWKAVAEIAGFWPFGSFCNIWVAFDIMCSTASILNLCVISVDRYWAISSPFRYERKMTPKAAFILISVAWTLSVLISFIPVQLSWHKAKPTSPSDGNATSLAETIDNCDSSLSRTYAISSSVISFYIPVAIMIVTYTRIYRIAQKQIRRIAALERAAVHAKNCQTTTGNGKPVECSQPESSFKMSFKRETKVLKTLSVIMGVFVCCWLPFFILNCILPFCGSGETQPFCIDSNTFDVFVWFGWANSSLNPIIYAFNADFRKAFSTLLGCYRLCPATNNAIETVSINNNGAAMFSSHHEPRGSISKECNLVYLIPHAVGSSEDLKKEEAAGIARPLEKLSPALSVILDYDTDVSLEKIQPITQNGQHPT

Compound | Specific binding ([1]; IPP screening at 10 uM) | Specific binding ([2]; IPP screening at 10 uM) | Specific binding [3] | pod_httr_bifrost PoD (MCF7 cells) | podl_path_minbmd PoD (MCF7 cells) | Specific binding ([4]; IPP screening at 10 uM) | IPP screening %, Enzymatic activity [5] | pod_httr_bifrost PoD (HepG2 cells) | podl_path_minbmd PoD (HepG2 cells) | Specific binding [7] | Specific binding [8, 14] | Specific binding ([9]; IPP screening at 10 uM) | Specific binding ([10]; IPP screening at 10 uM) | Specific binding [11, 15] | Specific binding ([12]; IPP screening at 10 uM) | Specific binding ([13]; IPP screening at 10 uM) | further results
CCOP(=S)(OCC)Oc1nc(Cl)c(Cl)cc1Cl [Chlorpyrifos, O,O-Diethyl O-(3,5,6-trichloropyridin-2-yl) phosphorothioate] | 1.9% | -62.6% | 13.4% | 0.08218 µM | 3.743 µM | -5.6% | -18.8% | 0.000303 µM | 2.42 µM | 16.0% | -11.0% | -21.3% | -9.1% | 52.0% | 55.2% | 29.9% | risk ([6]; Oral, 0.1 mg/kg, Tablet, Exp3): 1
CC(C)(C)c1ccc(CCOc2ncnc3ccccc23)cc1 [Fenazaquin, 4-[2-(4-tert-Butylphenyl)ethoxy]quinazoline] | 4.5% | -38.6% |  | 0.001313 µM | 0.3873 µM | 12.0% | -29.1% | 0.0002567 µM | 0.002178 µM | 26.8% | 7.6% | 14.3% | 4.6% | 20.7% | 60.9% | 16.1% | Specific binding ([3]; IPP screening at 10 uM, control veratridine): 39.5%; Risk Classification ([6]; Oral, residue, 0.005 mg/kg bw/day): Low risk; risk ([6]; Oral, 17% ADI 0.005 mg/kg bw/day, Food residue, Exp2): 0; risk ([6]; Oral, ADI 0.005 mg/kg bw/day, Food residue, Exp3): 0
mixture of 2- and 3-tert-butyl-4-methoxyphenol [Butylated Hydroxyanisole] | 3.5% | -2.5% | 16.8% |  |  | 8.4% | -6.0% |  |  | -1.2% |  | 8.9% | 2.8% | 74.3% | 4.2% | 7.1% | Specific binding [8]: -10.9%
CC1(C)O[C@@H]2[C@@H](CO[C@@]3(COS(N)(=O)=O)OC(C)(C)O[C@@H]23)O1 [Topiramate, [(3aS,5aR,8aR,8bS)-2,2,7,7-Tetramethyltetrahydro-2H,3aH,7H-bis[1,3]dioxolo[4,5-b:4',5'-d]pyran-3a-yl]methyl sulfamate (non-preferred name)] |  |  |  | 22.6252 µM | 512.687 µM |  |  | 3696.73 µM | 6631.79 µM |  |  |  |  |  |  |  | Specific binding ([1]; IPP screening at 100 uM): -2.4%; Specific binding ([2]; IPP screening at 100 uM): -13.7%; Specific binding ([3]; IPP screening at 100 uM, control veratridine): 30.2%; Specific binding ([4]; IPP screening at 100 uM): 12.2%; Risk Classification ([6]; Oral 50 mg/day): High risk; Risk Classification ([6]; Oral 500 mg/day): High risk; risk ([6]; Oral, High therapeutic, 500mg/day, Tablet, Exp1): 1; risk ([6]; Oral, Low therapeutic, 50mg/day, Tablet, Exp2): 1; Specific binding ([8]; IPP screening at 100 uM, control diazepam): 9.7%; Specific binding ([9]; IPP screening at 100 uM): 0.7%; Specific binding ([10]; IPP screening at 100 uM): 3.5%; Specific binding ([11]; IPP screening at 100 uM; control ±)DOI): 0.9%; Specific binding ([12]; IPP screening at 100 uM): 9.6%; Specific binding ([13]; IPP screening at 100 uM): 0.9%
(4S,4aR,5S,5aR,6S,12aS)-4-(Dimethylamino)-3,5,6,10,12,12a-hexahydroxy-6-methyl-1,11-dioxo-1,4,4a,5,5a,6,11,12a-octahydrotetracene-2-carboxamide--hydrogen chloride (1/1) [Oxytetracycline hydrochloride] | 1.4% | -18.3% | 10.5% |  |  |  | -18.6% |  |  | 4.9% | -0.4% |  |  |  | 7.8% | 3.3% | 
